Data on 12 compounds can be found in ChEMBL document CHEMBL1201862, “PubChem BioAssay data set” (2004).

Some test systems named below: ACHN; CAKI-1; HL-60; Hs-578T; K562; LOX IMVI; Malme-3M; NCI/ADR-RES; RPMI-8226; SF-295; SK-MEL-2; SK-OV-3; SR; SW-620; U-251; UACC-257; HOP-92; RXF 393; SN12C; MDA-MB-231.
Holding throughout (experiment): NCI-60 cell line screen, 48 h

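Compound exposure: 48 hours, 5 concentrations, 96-well plates. GI50 = concentration required for 50% inhibition of growth.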 Active and inactive are the calls of the source. No stated cut-off is given here; in the data, active = GI50 up to about 1.1 µM and inactive = higher.

For `CCN(CC)c1ccc2cc(-c3nnc(-c4ccccc4)[nH]3)c(=O)oc2c1`, the GI50 with ACHN is 36.7 µM (inactive); in the assay with CAKI-1 it was 26.9 µM (inactive); with HL-60 it was > 100 µM (inactive); with Hs-578T, 39.9 µM (inactive); in the assay with K562, > 100 µM (inactive); in the assay on LOX IMVI, 94.4 µM (inactive). In addition, the GI50 was 83 µM (inactive) in the assay on Malme-3M; 21.7 µM (inactive) in the assay with NCI/ADR-RES; 54.2 µM (inactive) in the assay on RPMI-8226; 24.5 µM (inactive) in the assay with SF-295; 33 µM (inactive) with SK-MEL-2; 19.8 µM (inactive) with SK-OV-3. The GI50 in the assay on SR was 70.5 µM (inactive); in the assay with SW-620, 33.7 µM (inactive); in the assay on U-251, 15 µM (inactive); in the assay on UACC-257, > 100 µM (inactive).

`COc1cc2c(cc1OC)[C@@H]([C@H](O)c1ccccc1)NCC2`: the GI50 in the assay on ACHN is > 100 µM (inactive); in the assay on CAKI-1 it was > 84.9 µM (inactive); in the assay on HL-60, > 100 µM (inactive); in the assay with HOP-92 it was > 74.1 µM (inactive); in the assay on K562, > 100 µM (inactive); with LOX IMVI, > 100 µM (inactive). For the same compound, the GI50 was > 100 µM (inactive) with Malme-3M; > 100 µM (inactive) in the assay with RPMI-8226; > 100 µM (inactive) in the assay with RXF 393; > 100 µM (inactive) in the assay with SF-295; > 100 µM (inactive) in the assay with SK-MEL-2; > 82.6 µM (inactive) in the assay with SK-OV-3. In addition, the GI50 in the assay on SN12C, with SR, in the assay with SW-620, in the assay on U-251 and with UACC-257 was > 100 µM (inactive) throughout.

Consider `c1ccc2c(c1)nc1ccccn12`, for which the GI50 with ACHN was > 100 µM (inactive); in the assay on HL-60, > 100 µM (inactive); with HOP-92, > 100 µM (inactive); in the assay on Hs-578T it was 33.6 µM (inactive); in the assay on K562 it was > 100 µM (inactive); in the assay on Malme-3M, > 100 µM (inactive). The GI50 in the assay on NCI/ADR-RES, with RPMI-8226, in the assay with RXF 393, in the assay with SF-295, in the assay on SK-OV-3 and in the assay with SN12C was > 100 µM (inactive) each time. Moreover, the GI50 in the assay with SR, with SW-620, in the assay on U-251 and in the assay on UACC-257 was > 100 µM (inactive) in each case.

Turning to `Cn1c(C(C#N)c2cc(Cl)ncn2)nc2ccccc21` (stereo not drawn), the GI50 in the assay with ACHN, with CAKI-1, in the assay on HOP-92, in the assay with LOX IMVI, in the assay with MDA-MB-231 and with Malme-3M was > 100 µM (inactive) in each case. Besides, the GI50 in the assay on NCI/ADR-RES, in the assay on RPMI-8226, in the assay on RXF 393, in the assay on SF-295, in the assay with SK-OV-3 and in the assay with SN12C was > 100 µM (inactive) throughout. For the same compound, the GI50 with SW-620, in the assay with U-251 and with UACC-257 was > 100 µM (inactive) each time.

As to `COC1CCC(OS(C)(=O)=O)C(CO)O1` (stereo not drawn), the GI50 in the assay with ACHN, in the assay on HL-60, with HOP-92, with K562, with LOX IMVI and in the assay with Malme-3M was > 100 µM (inactive) each time. For the same compound, the GI50 with RXF 393, with SF-295, in the assay with SK-MEL-2, with SK-OV-3, in the assay on SN12C and in the assay with SR was > 100 µM (inactive) in each case. For the same compound, the GI50 in the assay on SW-620, in the assay with U-251 and in the assay with UACC-257 was > 100 µM (inactive) each time.

As to `O=C(N/C(=C\c1ccc([N+](=O)[O-])cc1)c1nc2cc(Cl)ccc2[nH]1)c1ccccc1`, the GI50 in the assay with ACHN is 22 µM (inactive); with CAKI-1 it was 24.4 µM (inactive); in the assay on HL-60, 17.2 µM (inactive); in the assay with HOP-92, 14 µM (inactive); in the assay with K562, 12.8 µM (inactive); with Malme-3M, 35.1 µM (inactive). The GI50 with RXF 393 was 21 µM (inactive); in the assay with SF-295, 23.8 µM (inactive); in the assay with SK-MEL-2 it was 21.9 µM (inactive); in the assay on SK-OV-3, 39.4 µM (inactive); with SN12C it was 20.7 µM (inactive); with SR it was 18 µM (inactive). Moreover, the GI50 in the assay on SW-620 is 19.5 µM (inactive); in the assay on U-251, 15.5 µM (inactive).

As to `COC(=O)C(Nc1ccc(OC)cc1)c1ccccc1` (stereo not drawn), the GI50 was > 100 µM (inactive) in the assay on ACHN; > 100 µM (inactive) with CAKI-1; > 100 µM (inactive) with Hs-578T; > 100 µM (inactive) in the assay on K562; > 100 µM (inactive) with LOX IMVI; 74.1 µM (inactive) in the assay with NCI/ADR-RES. Further, the GI50 is 83.9 µM (inactive) in the assay with RPMI-8226; 89.3 µM (inactive) in the assay with SF-295; > 100 µM (inactive) with SK-MEL-2; > 100 µM (inactive) in the assay with SN12C; > 100 µM (inactive) with SR; > 100 µM (inactive) with SW-620. Moreover, in the assay with UACC-257, the GI50 is > 100 µM (inactive).

With `Cc1cc(C[C@H]2O[C@@H]3OC(C)(C)O[C@@H]3[C@H]3OC(C)(C)O[C@H]32)c2ccccc2n1`, the GI50 is > 100 µM (inactive) in the assay on ACHN; 56.6 µM (inactive) with CAKI-1; 27.5 µM (inactive) in the assay with HL-60; 26.4 µM (inactive) in the assay with Hs-578T; 48.1 µM (inactive) with K562; > 100 µM (inactive) in the assay on LOX IMVI. The GI50 is 64.9 µM (inactive) in the assay on Malme-3M; 34 µM (inactive) with NCI/ADR-RES; 27.1 µM (inactive) in the assay with RPMI-8226; 39.1 µM (inactive) with RXF 393; > 100 µM (inactive) in the assay with SF-295; 36 µM (inactive) in the assay with SK-MEL-2. The GI50 was > 100 µM (inactive) with SK-OV-3; > 100 µM (inactive) in the assay on SN12C; 34.8 µM (inactive) with SR; > 100 µM (inactive) in the assay with SW-620; > 100 µM (inactive) in the assay with U-251; > 100 µM (inactive) in the assay with UACC-257.

On to `CCNC(=O)COc1ccc(Cl)cc1Cl`, for which the GI50 with ACHN, in the assay with CAKI-1, in the assay on HL-60, in the assay on HOP-92, with K562 and with Malme-3M was > 100 µM (inactive) each time. Also, the GI50 in the assay on RPMI-8226, with SF-295, in the assay with SK-MEL-2, in the assay on SK-OV-3, with SN12C and with SR was > 100 µM (inactive) throughout. Also, the GI50 in the assay on SW-620, in the assay with U-251 and with UACC-257 was > 100 µM (inactive) in each case.

Regarding `CS/C(=N\c1ccccc1Cl)NC(=O)c1ccc(Br)cc1`, the GI50 in the assay with ACHN is > 100 µM (inactive); in the assay on CAKI-1 it was 32.1 µM (inactive); in the assay with HL-60, 34 µM (inactive); in the assay on HOP-92, < 0.01 µM (active); with K562, 14.9 µM (inactive); in the assay on LOX IMVI, > 100 µM (inactive). For the same compound, the GI50 with Malme-3M is 33.9 µM (inactive); with RPMI-8226, 55.5 µM (inactive); in the assay with RXF 393, 31.3 µM (inactive); with SF-295 it was 59.3 µM (inactive); in the assay with SK-MEL-2, 66.7 µM (inactive); in the assay with SK-OV-3, 63 µM (inactive). For the same compound, the GI50 in the assay on SN12C was > 100 µM (inactive); in the assay on SR it was 40.5 µM (inactive); in the assay with SW-620 it was > 100 µM (inactive); in the assay with U-251 it was 39.5 µM (inactive); with UACC-257, > 100 µM (inactive).

In the case of `Cc1ccccc1NC(=O)/C(=N\NC(N)=S)C(C#N)c1ccccc1` (stereo not drawn), the GI50 with ACHN, in the assay with HL-60, with HOP-92, in the assay on K562, with LOX IMVI and in the assay with Malme-3M was > 100 µM (inactive) in each case. Moreover, the GI50 in the assay with RPMI-8226, in the assay with RXF 393, in the assay with SF-295, in the assay with SK-MEL-2, in the assay with SK-OV-3 and in the assay on SN12C was > 100 µM (inactive) in each case. For the same compound, the GI50 in the assay on SR, in the assay with SW-620, with U-251 and in the assay with UACC-257 was > 100 µM (inactive) each time.

Turning to `CC12CCC(=O)C[C@H]1CCC(OC=O)C2Br` (stereo partly drawn), the GI50 in the assay on ACHN, with CAKI-1, with HL-60, in the assay on HOP-92, with K562 and in the assay with LOX IMVI was > 100 µM (inactive) throughout. Moreover, the GI50 with Malme-3M, in the assay with RPMI-8226, with SF-295, in the assay with SK-MEL-2, in the assay on SK-OV-3 and with SN12C was > 100 µM (inactive) each time. The GI50 in the assay on SR, with SW-620, in the assay on U-251 and in the assay on UACC-257 was > 100 µM (inactive) each time.
